In patent US10597388B2, “Pyridazinone herbicides” (FMC CORPORATION, priority 2014, dated 2020):

How the values were obtained:
Type in all cases: in vivo
[1] = test system: blackgrass (Alopecurus myosuroides); test: Test A greenhouse herbicide test, postemergence
How it was run: (§1)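 Seedlings in a loam soil and sand mix received formulated compound postemergence at the one- to two-leaf stage. Greenhouse holding lasts approximately 10 d, then injury is scored visually relative to untreated plants, 0 meaning no effect and 100 complete control.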

[2] = test system: galium (catchweed bedstraw, Galium aparine); test: Test A greenhouse herbicide test, postemergence
How it was run: as §1

[3] = test system: barnyardgrass (Echinochloa crus-galli); test: Test C greenhouse herbicide test, pre- and postemergence
How it was run: (§2)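 Greenhouse pots; pre-em on seeded loam:sand blend, post-em on 2–18 cm plants (1–4 leaf) in sphagnum peat/vermiculite medium. Formulation: non-phytotoxic solvent + surfactant. Read-out: visual % control (0–100) vs controls at 13–15 d.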

[4] = test system: crabgrass, large (large crabgrass, Digitaria sanguinalis); test: as above
How it was run: as §2

[5] = test system: foxtail, giant (giant foxtail, Setaria faberii); test: as above
How it was run: as §2

[6] = test system: galium (catchweed bedstraw, Galium aparine); test: as above
How it was run: as §2

[7] = test system: johnsongrass (Sorghum halepense); test: as above
How it was run: as §2

[8] = test system: lambsquarters (Chenopodium album); test: as above
How it was run: as §2

[9] = test system: morningglory (Ipomoea coccinea); test: as above
How it was run: as §2

[10] = test system: oilseed rape (Brassica napus); test: as above
How it was run: as §2

[11] = test system: ragweed (common ragweed, Ambrosia elatior); test: as above
How it was run: as §2

[12] = test system: ryegrass, Italian (Italian ryegrass, Lolium multiflorum); test: as above
How it was run: as §2

[13] = test system: wheat (winter wheat, Triticum aestivum); test: as above
How it was run: as §2

[14] = 125 g ai/ha, 0 to 100 scale where 0 is no effect and 100 is complete control
[15] = 500 g ai/ha, visual rating after approx. 10 d, 0 to 100 scale (0 no effect, 100 complete control)
[16] = Postemergence, 31 g ai/ha, scale 0 to 100 (0 no effect, 100 complete control)
[17] = Postemergence, 62 g ai/ha, 0 to 100 scale (0 no effect, 100 complete control)
[18] = Postemergence, 250 g ai/ha, scale 0 to 100, 0 no effect, 100 complete control, 13 to 15 d
[19] = Preemergence, 31 g ai/ha, scale 0 to 100, 0 is no effect, 100 is complete control
[20] = Preemergence, 62 g ai/ha, scale 0 to 100, 0 is no effect, 100 is complete control
[21] = Preemergence, 125 g ai/ha, scale 0 to 100, 0 is no effect, 100 is complete control
[22] = Preemergence, 250 g ai/ha, scale 0 to 100, 0 no effect, 100 complete control
[23] = postemergence, 125 g ai/ha, scale 0 to 100, 0 no effect, 100 complete control
[24] = 125 g ai/ha, 0 to 100 scale, 0 no effect, 100 complete control
[25] = Postemergence, 250 g ai/ha, scale 0 to 100, 0 is no effect, 100 is complete control

COC(=O)Oc1c(C)nn(C)c(=O)c1-c1ccc(Br)c2ccccc12 [Compound 145]
Plant response rating, Blackgrass [1, 14]: 40 | Plant response rating, Blackgrass [1, 15]: 80 | Plant response rating, Galium [2, 14]: 100 | Plant response rating, Galium [2, 15]: 100 | Plant response rating, Barnyardgrass [3, 16]: 20 | Barnyardgrass plant response rating [3, 17]: 15 | Plant response rating, Barnyardgrass ([3]; Postemergence, 125 g ai/ha, scale 0 to 100, 0 is no effect, 100 is complete control): 30 | Plant response rating, Barnyardgrass [3, 18]: 70 | Plant response rating, Barnyardgrass [3, 19]: 10 | Plant response rating, Barnyardgrass [3, 20]: 35 | Plant response rating, Barnyardgrass [3, 21]: 75 | Barnyardgrass plant response rating [3, 22]: 95 | Plant response rating, Crabgrass, Large [4, 16]: 15 | Crabgrass, Large plant response rating [4, 17]: 10 | Plant response rating, Crabgrass, Large [4, 18]: 20 | Plant response rating, Crabgrass, Large [4, 19]: 5 | Plant response rating, Crabgrass, Large [4, 20]: 50 | Plant response rating, Crabgrass, Large [4, 21]: 55 | Crabgrass, Large plant response rating [4, 22]: 55 | Crabgrass, Large plant response rating [4, 23]: 10 | Plant response rating, Foxtail, Giant [5, 16]: 20 | Foxtail, Giant plant response rating [5, 17]: 25 | Plant response rating, Foxtail, Giant [5, 18]: 55 | Plant response rating, Foxtail, Giant [5, 19]: 35 | Plant response rating, Foxtail, Giant [5, 20]: 60 | Plant response rating, Foxtail, Giant [5, 21]: 75 | Foxtail, Giant plant response rating [5, 22]: 95 | Foxtail, Giant plant response rating [5, 23]: 25 | Plant response rating, Galium [6, 16]: 90 | Galium plant response rating [6, 17]: 95 | Plant response rating, Galium [6, 18]: 100 | Plant response rating, Galium [6, 19]: 90 | Plant response rating, Galium [6, 20]: 98 | Plant response rating, Galium [6, 21]: 100 | Galium plant response rating [6, 22]: 98 | Galium plant response rating [6, 23]: 98 | Plant response rating, Johnsongrass [7, 16]: 10 | Johnsongrass plant response rating [7, 17]: 10 | Plant response rating, Johnsongrass [7, 18]: 20 | Plant response rating, Johnsongrass [7, 19]: 10 | Plant response rating, Johnsongrass [7, 20]: 5 | Plant response rating, Johnsongrass [7, 21]: 5 | Johnsongrass plant response rating [7, 22]: 5 | Johnsongrass plant response rating [7, 23]: 20 | Plant response rating, Lambsquarters [8, 16]: 98 | Lambsquarters plant response rating [8, 17]: 98 | Plant response rating, Lambsquarters [8, 18]: 100 | Plant response rating, Lambsquarters [8, 19]: 90 | Plant response rating, Lambsquarters [8, 20]: 90 | Plant response rating, Lambsquarters [8, 21]: 100 | Lambsquarters plant response rating [8, 22]: 100 | Lambsquarters plant response rating [8, 23]: 100 | Plant response rating, Morningglory [9, 16]: 95 | Morningglory plant response rating [9, 17]: 98 | Plant response rating, Morningglory [9, 18]: 100 | Plant response rating, Morningglory [9, 19]: 75 | Plant response rating, Morningglory [9, 20]: 80 | Plant response rating, Morningglory [9, 21]: 98 | Morningglory plant response rating [9, 22]: 100 | Morningglory plant response rating [9, 23]: 100 | Plant response rating, Oilseed Rape [10, 16]: 98 | Oilseed Rape plant response rating [10, 17]: 98 | Plant response rating, Oilseed Rape [10, 18]: 90 | Plant response rating, Oilseed Rape [10, 19]: 5 | Plant response rating, Oilseed Rape [10, 20]: 90 | Plant response rating, Oilseed Rape [10, 21]: 90 | Oilseed Rape plant response rating [10, 22]: 98 | Oilseed Rape plant response rating [10, 23]: 95 | Plant response rating, Ragweed [11, 16]: 0 | Ragweed plant response rating [11, 17]: 0 | Plant response rating, Ragweed [11, 18]: 25 | Plant response rating, Ragweed [11, 19]: 55 | Plant response rating, Ragweed [11, 20]: 65 | Plant response rating, Ragweed [11, 21]: 85 | Ragweed plant response rating [11, 22]: 90 | Ragweed plant response rating [11, 23]: 5 | Plant response rating, Ryegrass, Italian [12, 16]: 5 | Ryegrass, Italian plant response rating [12, 17]: 15 | Plant response rating, Ryegrass, Italian [12, 18]: 40 | Plant response rating, Ryegrass, Italian [12, 19]: 100 | Plant response rating, Ryegrass, Italian [12, 20]: 100 | Plant response rating, Ryegrass, Italian [12, 21]: 100 | Ryegrass, Italian plant response rating [12, 22]: 100 | Ryegrass, Italian plant response rating [12, 23]: 30 | Plant response rating, Wheat [13, 16]: 40 | Wheat plant response rating [13, 17]: 50 | Plant response rating, Wheat [13, 18]: 90 | Plant response rating, Wheat [13, 19]: 0 | Plant response rating, Wheat [13, 20]: 0 | Plant response rating, Wheat [13, 21]: 0 | Wheat plant response rating [13, 22]: 5 | Wheat plant response rating [13, 23]: 85

Cc1nn(C)c(=O)c(-c2c([N+](=O)[O-])ccc3ccccc23)c1O [Compound 165]
Plant response rating, Blackgrass [1, 24]: 20 | Plant response rating, Blackgrass [1, 15]: 50 | Plant response rating, Galium [2, 24]: 100 | Plant response rating, Galium [2, 15]: 100 | Plant response rating, Barnyardgrass [3, 16]: 10 | Barnyardgrass plant response rating [3, 17]: 15 | Plant response rating, Barnyardgrass [3, 25]: 25 | Barnyardgrass plant response rating [3, 23]: 25 | Plant response rating, Crabgrass, Large [4, 16]: 0 | Crabgrass, Large plant response rating [4, 17]: 5 | Plant response rating, Crabgrass, Large [4, 25]: 20 | Crabgrass, Large plant response rating [4, 23]: 20 | Plant response rating, Foxtail, Giant [5, 16]: 0 | Foxtail, Giant plant response rating [5, 17]: 5 | Plant response rating, Foxtail, Giant [5, 25]: 25 | Foxtail, Giant plant response rating [5, 23]: 15 | Plant response rating, Galium [6, 16]: 85 | Galium plant response rating [6, 17]: 85 | Plant response rating, Galium [6, 25]: 100 | Galium plant response rating [6, 23]: 98 | Plant response rating, Johnsongrass [7, 16]: 0 | Johnsongrass plant response rating [7, 17]: 5 | Plant response rating, Johnsongrass [7, 25]: 15 | Johnsongrass plant response rating [7, 23]: 10 | Plant response rating, Lambsquarters [8, 16]: 70 | Lambsquarters plant response rating [8, 17]: 75 | Plant response rating, Lambsquarters [8, 25]: 98 | Lambsquarters plant response rating [8, 23]: 85 | Plant response rating, Morningglory [9, 16]: 75 | Morningglory plant response rating [9, 17]: 70 | Plant response rating, Morningglory [9, 25]: 95 | Morningglory plant response rating [9, 23]: 85 | Plant response rating, Oilseed Rape [10, 16]: 0 | Oilseed Rape plant response rating [10, 17]: 0 | Plant response rating, Oilseed Rape [10, 25]: 5 | Oilseed Rape plant response rating [10, 23]: 0 | Plant response rating, Ragweed [11, 16]: 40 | Ragweed plant response rating [11, 17]: 55 | Plant response rating, Ragweed [11, 25]: 85 | Ragweed plant response rating [11, 23]: 75 | Plant response rating, Ryegrass, Italian [12, 16]: 40 | Ryegrass, Italian plant response rating [12, 17]: 50 | Plant response rating, Ryegrass, Italian [12, 25]: 70 | Ryegrass, Italian plant response rating [12, 23]: 55 | Plant response rating, Wheat [13, 16]: 5 | Wheat plant response rating [13, 17]: 5 | Plant response rating, Wheat [13, 25]: 15 | Wheat plant response rating [13, 23]: 10
